Test results as given in a melting point compilation (Tetko et al.; mined from patent text by program, amines drawn as free bases though some values may be those of a salt).

Compared with CCCCCCCCc1ccc2nc(-c3ccc(COC(CCCCCC)C(F)(F)F)cc3)sc2c1 (configuration not stated), CCCCCCCCCCCCCCOc1cccc(C(=O)Cl)c1 is lower in melting point: 37.2 °C for the first, 26 to 27 °C for the second.

First: N#CCn1nnnc1S
Second: CC(C)(C)n1cnc2c1c1ccccc1n1nnnc21
The melting point of the first is lower: 116 to 118 °C for the first, 224 to 226 °C for the second.

Compared with C(=C(c1ccccc1)c1ccccc1)c1ccccn1, O=C(NN=CC=Cc1ccccc1)c1ccccc1 is higher in melting point: 117 to 119 °C for the first, 192 to 194 °C for the second.

First: CCCNCC(O)COc1ccc2c(=O)cc(-c3ccccc3)oc2c1 (configuration not stated)
Second: Cc1sc(COc2ccc(/C=C/C=O)cc2)nc1-c1ccccc1
The melting point of the first is higher: 145 to 147 °C for the first, 116 to 117 °C for the second.

First: O=C(CCc1ccccc1)NC(C(=O)Nc1n[nH]c(=S)s1)c1ccccc1 (configuration not stated)
Second: CC(=O)c1c(-c2ccccc2)nn2ccccc12
The melting point of the first is higher: 196 to 198 °C for the first, 84 to 85 °C for the second.

First: CC(=O)c1ccc(-c2ccc(C(N)=NO)o2)cc1
Second: Oc1ccc(C(=S)c2ccc(-c3ccccc3)cc2)c(O)c1
The melting point of the first is higher: 197 to 199 °C for the first, 114 to 116 °C for the second.

First: c1ccc2c(-n3cncn3)ccnc2c1
Second: O=c1c2ccccc2ncn1-c1nnn[nH]1
The melting point of the first is lower: 147 to 149 °C for the first, 259 to 260 °C for the second.

Compared with CCCCn1ncc2c1nc(N)n1nc(-c3ccco3)nc21, Cc1cc(C)n(-c2nc(Nc3ccccn3)c3ccccc3n2)n1 is lower in melting point: 157 to 158 °C for the first, 126 to 127 °C for the second.

First: CCc1nn(C2CCCC2)c(N)c1C(N)=O
Second: CCN1CCCCC1CCc1ccccc1NC(=O)c1ccc(OC)cc1 (configuration not stated)
The melting point of the first is higher: 167 to 168 °C for the first, 136 to 138 °C for the second.

First: CNC(=O)n1nc(Oc2ncc(C(F)(F)F)cc2Cl)cc1C(F)(F)F
Second: COc1ccc(NC(=O)Nc2ccc(Cl)c(Cl)c2)cc1NC(=S)Nc1cc(C(F)(F)F)cc(C(F)(F)F)c1
The melting point of the first is lower: 61 to 63 °C for the first, 181 °C for the second.

Compared with COC(=O)c1ccccc1C(=O)n1nc(O)ccc1=O, Cc1cc(OC(=O)c2ccccc2)ccc1O is lower in melting point: 144 to 145 °C for the first, 120 to 122 °C for the second.

First: O=C(Nc1cnccn1)N1CCN(c2nc(-c3ccccc3)cs2)CC1
Second: Cc1ccc(NC(=O)NN2CCN(CCc3c[nH]c4ccccc34)CC2)cc1
The melting point of the first is lower: 134 to 135 °C for the first, 201 to 203 °C for the second.

First: Cn1cncc1S(=O)(=O)O
Second: NS(=O)(=O)Oc1ccccc1F
The melting point of the first is higher: 286 to 287 °C for the first, 63 to 64 °C for the second.

Compared with CS(=O)(=O)OCCOc1ccc(CN2C(=O)C(=O)c3cc(S(=O)(=O)N4CCCC4COc4ccccc4)ccc32)cc1 (configuration not stated), COc1ccc(-c2cc(C(=O)Nc3ccccc3)c(=O)n(CC3CC3)n2)cc1 is higher in melting point: 152 to 153 °C for the first, 163 °C for the second.

First: CN(Cc1cc(C(F)(F)F)cc(C(F)(F)F)c1)C(=O)c1cnc2ccccc2c1-c1ccccc1
Second: O=C(Cn1nc2ccccc2n1)Nc1ccc(-n2nc(C(F)(F)F)cc2C2CC2)cc1
The melting point of the first is lower: 96 to 97 °C for the first, 188 to 192 °C for the second.

First: CC(C)Cn1c(=O)[nH]c(=O)c2nccnc21
Second: Cc1ccnc2c1N(O)C(=O)c1cccnc1N2C1CC1
The melting point of the first is lower: 200 to 201 °C for the first, 239 to 241 °C for the second.

Compared with Nc1sc(CC(C(=O)O)C(=O)O)cc1C(=O)c1ccccc1Cl, Cc1sc(-n2nc(C(=O)O)nc2CCl)c(C(=O)c2ccccc2)c1C is higher in melting point: 150 to 160 °C for the first, 162 to 163 °C for the second.

First: Cc1c(C(=O)OCc2ccccc2)sc(NC(=O)C(F)(F)F)c1C(=O)OC(C)(C)C
Second: COC(=O)c1cc(NC(=O)OC(C)(C)C)c(N)cc1C#Cc1ccccc1
The melting point of the first is lower: 136 to 138 °C for the first, 164 °C for the second.

First: CCOC(=O)C1CN(C(=O)C2=Cc3cc(OC)c(OC)cc3CCC2)CCN1 (configuration not stated)
Second: COc1cc(-c2csc(N(CCC3CCCCC3)C(=O)c3cc4ccccc4n3CC(=O)O)n2)c(OC)cc1C
The melting point of the first is lower: 105 to 106 °C for the first, 198 °C for the second.

First: CC(C#N)=C1CCN(c2ccc(N3C[C@H](CNC(=O)CC#N)OC3=O)cc2F)CC1
Second: CC(=O)NC[C@H]1CN(c2cc(F)c(N3CCN(C(=O)CO)CC3)c(F)c2)C(=O)O1
The melting point of the first is higher: 194 to 196 °C for the first, 160 to 162 °C for the second.

First: CCOC(=O)C1Cc2cc3ccccc3n2C1 (configuration not stated)
Second: CCOC(=O)c1cccc(Cn2cnc3ccccc32)c1
The melting point of the first is lower: 55 to 57 °C for the first, 68 to 70 °C for the second.

First: Clc1ccc(-c2nc(Br)cnc2Br)cc1
Second: Cc1cc(Cl)nnc1-c1ccc(C#N)cc1
The melting point of the first is lower: 123 to 125 °C for the first, 218 to 220 °C for the second.

Compared with CC(C)(C)[C@@H](CO)NC(=O)[C@@H](CC(=O)O)n1ccc(-c2ccc(-c3ccncc3)cc2)c1, CC(C)(C)OC(=O)Nc1ccc(-c2ccccc2F)cc1NC(=O)CC(=O)c1ccc(C#N)s1 is higher in melting point: 192 to 194 °C for the first, 201 °C for the second.

First: CC(N)C(Cc1ccc(OCc2ccccc2)cc1)CC(O)c1ccccc1F (configuration not stated)
Second: O=C(O)c1ccccc1NCCC=C1c2ccccc2CCc2ccccc21
The melting point of the first is lower: 162 to 163 °C for the first, 164 to 167 °C for the second.

First: Cc1cc(C#N)cc(C)c1OCCCc1ccc(CO)o1
Second: CCCc1cc([N+](=O)[O-])cc2cc(C(=O)OCC)oc12
The melting point of the first is lower: 37 to 38 °C for the first, 111 °C for the second.

First: N#Cc1cnn2cccc2c1Nc1ccccc1
Second: CC1(C)C=C(n2cc(C#N)c3ccccc32)c2cc(C#N)ccc2O1
The melting point of the first is lower: 164 °C for the first, 192 to 193 °C for the second.

Going from C=C(COCC(=C)C(=O)O)C(=O)O to CC(=O)Nc1cc(Br)ccc1C(=O)O, the melting point rises from 177 °C to 220 °C.

First: NS(=O)(=O)N1CCC(F)(F)CC1
Second: O=C(O)C1CCN(Cc2cc(Br)cc3[nH]c(=O)c(=O)[nH]c23)CC1
The melting point of the first is lower: 111 to 112 °C for the first, greater than 300 °C for the second.

First: CCC[C@H]1[C@@H](O)CC(=O)N1c1ccc(C#N)c(Cl)c1
Second: Cc1ccc(Cl)cc1N1C(=O)CN(C)C1=S
The melting point of the first is higher: 143 to 146 °C for the first, 132 to 134 °C for the second.

Compared with Nc1ccc(S(=O)(=O)Nc2cccc(OP(N)(N)=O)c2)cc1, CCC1c2cccn2-c2ccc(C(F)(F)F)cc2N1S(=O)(=O)c1ccc(O)cc1 (configuration not stated) is lower in melting point: 185 to 186 °C for the first, 181 to 183 °C for the second.

First: CC(C)(C)C(Cl)=CC(=O)O
Second: CC(C)(C)OC(=O)CC1(O)CCc2c([nH]c3ccccc23)C1=O (configuration not stated)
The melting point of the first is lower: 146 to 148 °C for the first, 156 to 157 °C for the second.

Compared with O=C1CCC2c3ccccc3CCC2N1 (configuration not stated), C1=C2NCCN2C(c2ccccc2)c2ccccc2C1 (configuration not stated) is lower in melting point: 227 to 228 °C for the first, 200 to 201 °C for the second.

CON(C)C(=O)c1ocnc1C and CCOc1nccc(C(=O)OC)c1N cannot be ordered by melting point: 59 to 60 °C for the first, 59 to 60.5 °C for the second.

First: Cc1ncsc1C(C)(O)c1cc2ccccc2o1 (configuration not stated)
Second: COc1cc2ccccc2c(Br)c1O
The melting point of the first is higher: 139 to 140 °C for the first, 100 to 101 °C for the second.

Compared with Cc1nc2cc(NC(=O)c3cc4cc(F)ccc4n3Cc3cccc(F)c3)cnc2n1C, CSc1c(CC(C)(C)C(=O)O)n(Cc2ccc(Cl)cc2)c2ccc(F)cc12 is lower in melting point: 274 to 275 °C for the first, 161 to 163 °C for the second.

First: c1cnnc(N=C2SC[C@@H]3Cc4ccccc4CN23)c1
Second: CN1CCN(Cc2ccc3n2Cc2ccccc2SC3c2ccccc2)CC1 (configuration not stated)
The melting point of the first is lower: 140 to 142 °C for the first, 161 to 162 °C for the second.

First: Clc1ccc(-n2c(Cl)nc3ccccc32)c(Cl)c1
Second: Nc1nc2ccccc2n1-c1cccc(-c2nccs2)c1
The melting point of the first is lower: 80 to 83 °C for the first, 224 to 226 °C for the second.

First: CC(=O)c1c(N)ncn1C1c2ccccc2CC1(C)C (configuration not stated)
Second: CN(C)C1CCCN(C(=O)c2ccc([N+](=O)[O-])cc2)c2ccccc21 (configuration not stated)
The melting point of the first is higher: 174 to 175 °C for the first, 139 to 142 °C for the second.

First: O=C1N=CC(OCc2ccccn2)(C(F)(F)F)c2cc(Cl)ccc2N1 (configuration not stated)
Second: FC(F)(F)c1cc(-c2ccc(Cl)cc2)nc2c(-c3cccnc3)cnn12
The melting point of the first is higher: 233 to 235 °C for the first, 188 °C for the second.

First: O=C(Nc1cccc(F)c1F)c1ccc(-n2nc(C(F)(F)F)cc2C2CC2)c(F)c1
Second: O=c1c2cc(F)c(F)cc2n(CC2CC2)c(=O)n1OCc1ccccc1
The melting point of the first is higher: 175 to 180 °C for the first, 121 to 123 °C for the second.

First: FC(F)c1nc2ccccc2n1-c1nc(Sc2ccccc2)nc(N2CCOCC2)n1
Second: O=[N+]([O-])c1ccc2oc(-c3ccc(CN4CCOCC4)s3)nc2c1
The melting point of the first is higher: 245 to 248 °C for the first, 149 to 151 °C for the second.

First: O=[N+]([O-])c1ccc(-n2nnnc2-c2ccccc2-c2ccc(CBr)cc2)cc1
Second: Fc1ccc(C(=Cc2ccccc2Cl)CBr)cc1
The melting point of the first is higher: 192 to 195 °C for the first, 68 °C for the second.

Compared with O=S(=O)(F)c1cc2nc(Cl)c(Cl)nc2cc1Cl, O=c1n(CCCF)nnn1-c1cc([N+](=O)[O-])c(Cl)cc1F is lower in melting point: 109 to 111 °C for the first, 80 to 81 °C for the second.

First: CNC(=O)ON=C1N=C(C(C)C)C(C)(C)S1
Second: CC(C)(CO)Oc1ccc2c(c1)CCc1c-2ccc2c1CCC2(C)C
The melting point of the first is lower: 89 to 91 °C for the first, 122 to 125 °C for the second.

Compared with Oc1cccc(COC=C2C3CC4CC(C3)CC2C4)c1, CCOC(=O)N1CCC(N2CCN(CC(=O)Nc3c(C)cccc3C)CC2)CC1Cc1ccc(Cl)c(Cl)c1 (configuration not stated) is lower in melting point: 133 to 134 °C for the first, 101 °C for the second.

First: OC1CSC(Oc2cc(-c3cncnc3)cc(F)c2F)C(O)C1O (configuration not stated)
Second: CCc1ncnc(Sc2ccc(Cl)cc2)c1F
The melting point of the first is higher: 191 °C for the first, 44.1 to 45.5 °C for the second.

Compared with COC(=O)C1(NC(=O)Cc2cc(-c3ccc(Cl)cc3)ccc2Cl)CCCC(C(F)(F)F)C1 (configuration not stated), O=C(Cc1ccc(Cl)cc1C(=O)O)Nc1cccc(/C=C/c2nc(C3CCC3)cs2)c1 is higher in melting point: 148 °C for the first, 223 to 225 °C for the second.

First: CN(C)C(=O)CON(Cc1ccc(F)cc1)C(=O)C1=C(O)C(=O)N(C)C1
Second: CCOC(=O)C(NC(C)=O)C(O)c1ccc(C=Cc2csc3ccccc23)s1 (configuration not stated)
The melting point of the first is lower: 147 to 149 °C for the first, 157 to 159 °C for the second.

Compared with CC(C)c1cccc([N+](=O)[O-])c1C#N, C#CCN(C(C)=O)c1cccc(-c2ccc3nncn3n2)c1 is higher in melting point: 121 to 124 °C for the first, 195 to 198 °C for the second.

Compared with OCC1Cc2sccc2CN1 (racemic), O=C1CCCc2scnc21 is higher in melting point: 110 °C for the first, 121 to 122 °C for the second.

First: COc1cc(C)c(CCCCCCCCCCCCCCCCCCCCCCO)c(O)c1OC
Second: OCCNCCOc1ccc2cc3ccc(OCCNCCO)cc3nc2c1
The melting point of the first is lower: 78 to 81 °C for the first, 125 to 127 °C for the second.

First: CCOC=Nc1c(S(C)=O)c(C#N)nn1-c1c(Cl)cc(C(F)(F)F)cc1Cl (configuration not stated)
Second: O=CC=NNc1c(Cl)cc(C(F)(F)F)cc1Cl
The melting point of the first is lower: 93 to 95 °C for the first, 131 to 133 °C for the second.

First: Clc1ccc(-c2nc(CCCCCc3nnn[nH]3)oc2-c2ccc(Cl)cc2)cc1
Second: Nc1cccc(OCCCN2CCC(c3noc4cc(F)ccc34)CC2)c1
The melting point of the first is lower: 100 °C for the first, 115 to 117 °C for the second.

C#CCOc1ccc(C(=O)C=Cc2ccccc2)c(O)c1 gave a melting point of 115 to 117 °C.
